Where a SMILES comes first, the peptide text is derived from it. [ ]: non-standard residue; d: D form. The star is where a group is joined. ξ: configuration not given here. ξGly(octyl) = CCCCCCCCC(N)C(=O)O; Hexenoyl(3E) = CC/C=C/CC(=O)*
Tests used:
[1] = ref unpublished data; cited from earlier work
Source text: In a separate experiment, intestinal delivery was studied of two GLP-1 analogues where modifications were made with the aim of increasing their circulating half-life by several hours relative to the native molecule. In one variant, G001, the molecule was identical to native GLP-1, except that N-terminal amino group was conjugated with salicylic acid. In the second, lipidated, analogue, G002, the N-terminal was conjugated with trans-3-hexenoic acid, and in position 14, leucine was replaced by octyl glycine. In addition, glutamate and alanine in positions 21 and 24 respectively were reversed, an ...

blood glucose = assay: Blood glucose response to exendin-4 in anaesthetised rats; format: in vivo, rat; conditions: exendin-4 co-formulated in Axcess with recombinant human insulin, via the intestine, n = 5
Source text: Male Sprague-Dawley rats aged 8 weeks were checked for health status on delivery and assigned to cages (2 or 3 animals per cage) within the social groups at delivery and with animals of similar weight in the same cage. Animals were acclimated to the facility for 7 days before transfer to the study room for a further 4 days before the start of the experiment. The rats were randomly allotted to control and treatment groups. Animals were identified by cage tag and corresponding colour tail markings. At day −2 daily 24 h food intake was registered for each cage with 2-3 rats. At 14.00 h on day −1 (i.e., the day prior to the surgery) 50% of the usual food consumed in that interval was offered to the rats. […]
All data were entered into Excel spreadsheets and subsequently subjected to relevant statistical analyses (Graph Pad Prism software). […] Bioavailability=AUC peptide enteral administration/quantity of peptide administered enterally×quantity of peptide injected i.v./AUC of peptide after i.v. injection×100 Biopotency=biological activity after enteral administration/quantity of peptide administered enterally×quantity of peptide injected i.v./biological activity after i.v. injection×100

CC/C=C/CC(=O)N[C@@H](Cc1c[nH]cn1)C(=O)N[C@@H](C)C(=O)N[C@@H](CCC(=O)O)C(=O)NCC(=O)N[C@H](C(=O)N[C@@H](Cc1ccccc1)C(=O)N[C@H](C(=O)N[C@@H](CO)C(=O)N[C@@H](CC(=O)O)C(=O)N[C@H](C(=O)N[C@@H](CO)C(=O)N[C@@H](CO)C(=O)N[C@@H](Cc1ccc(O)cc1)C(=O)NC(CCCCCCCC)C(=O)N[C@@H](CCC(=O)O)C(=O)NCC(=O)N[C@@H](CCC(N)=O)C(=O)N[C@@H](C)C(=O)N[C@@H](C)C(=O)N[C@@H](CCCCN)C(=O)N[C@@H](C)C(=O)N[C@@H](Cc1ccccc1)C(=O)N[C@H](C(=O)N[C@@H](CCC(=O)O)C(=O)N[C@@H](Cc1c[nH]c2ccccc12)C(=O)N[C@@H](CC(C)C)C(=O)N[C@H](C(=O)N[C@@H](CCCCN)C(=O)N[C@@H](CC(N)=O)C(N)=O)C(C)C)[C@@H](C)CC)C(C)C)[C@@H](C)O)[C@@H](C)O (stereo partly drawn) [G002] ({Hexenoyl(3E)}-HAEGTFTSDVSSY[ξGly(octyl)]EGQAAKAFIEWLVKN-NH2)
half-life in rats [1]: ~12 h

Sal-HAEGTFTSDVSSYLEGQAAKEFIAWLVKGR-NH2 [G001, identical to native GLP-1, except that N-terminal amino group was conjugated with salicylic acid]
half-life in rats [1]: 0.417 h

recombinant human insulin: recombinant human insulin co-formulated with exendin-4 in the Axcess formulation
blood glucose with co-formulated insulin (blood glucose): reduce blood glucose relative to exendin-4 administered alone

— publication PMC12363265, “Glucagon-like peptide-1 receptor agonists for treatment of diabetes and obesity: advantage of oral delivery” (Frontiers in Drug Delivery, 2024)
